Experiments:
Format in all cases: in vivo, mouse
C1q = C1q signal intensity immunohistochemistry; conditions: 5×FAD mice
Excerpt: Elevated expression of C1q is observed in both human AD and mouse models of AD, and further such an elevated expression is closely associated with the elimination of synapses in microglia. In addition, MHC2 expression is increased in the AD brain. Therefore, to test whether these treatments, that improved synaptic density, had any effect on these neuroinflammatory markers, C1q (Abcam, #ab182451) and MHC2 (EMD Millipore, #MABF33) levels (FIGS. 5A-5D) were examined.
C1q and MHC2 signal intensity: Using an LSM 710 with a 20× or 40× objectives, z stacks of the entire slice thickness […] (40 images from each field) were acquired. The signal intensity was measured.
C1q and MHC2 signal intensity: Using an LSM 710 with a 20× or 40× objectives, z stacks of the entire slice thickness […] (40 images from each field) were acquired. The signal intensity was measured in Imaris.

IBA1+ microglia = assay: Iba1+ microglia counts in APOE4-KI 5×FAD hippocampus
Procedure: Hippocampal mouse brain sections were stained for Iba1, a microglia/macrophage specific marker, and cell numbers were counted. […] Next, 7-8 month old male APOE4-KI 5×FAD animals were treated with 3 weeks of PLX3397 diet (or control), followed by 21 days of A+V GENUS, during which animals remained on their diets (FIG. 37).

[1] = tested on: myelin basic protein (MBP); assay: MBP levels and myelination of PV axons; conditions: 5×FAD mice
Excerpt: It was next sought to understand whether Plx3397 administration-dependent electrophysiological alterations were attributed to changes in amyloid plaque levels. […] In the cuprizone model of demyelination, Plx33977 administration preserved myelin. It was thus considered whether electrophysiological alterations are associated with myelin levels in Plx3397 treated 5×FAD mice.
These observations point to synaptic connectivity, PNN extracellular architecture, and myelination as biological processes that GENUS impacts to improve the outcomes in Plx3397 administered 5×FAD mice. To further validate this, additional biochemical analyses were performed. […] Next, it was observed that Plx3397 (130.4±7.178), GENUS (116.2±5.225) and Plx3397+GENUS (119.0±6.325) all increased the WFA signals with the highest levels in Plx3397 alone group compared to controls (100±4.655) (FIGS. 25D, 25F). […] Synaptic input arriving within the PNN of parvalbumin (PV) interneurons and the PNN architecture are shown to modulate the activity of PV interneurons robustly. […] Next, although the total MBP levels was not affected (100±19.58, 132.4±30.10, 140.2±25.31, & 133.4±22.13 in control, Plx3397, GENUS, Plx3397+Genus groups, respectively), GENUS increased myelin ensheathment of axons of PV interneurons in Plx3397 administered 5×AFAD mice (20.75±1.45, 25.44±2.83, 37.91±4.56, & 31.3±3.21) (FIGS. 25D, 25H, 25I and FIG. 30C). Collectively, these findings show improved synaptic connectivity and axonal myelination of PV interneurons after repeated GENUS in Plx3397 administered 5×FAD mice.

CK-p25 mice = assay: Novel object recognition test in CK-p25 mice
Procedure: Given the neuroprotective effect of Plx3397+GENUS treatment, whether this treatment also impacted learning and memory was evaluated. Mice were tested in an open field (OF) and assessed for changes in anxiety and activity levels, followed by a novel object recognition (NOR) test of memory. 10-month-1d 5×FAD mice were treated with Plx3397. Following 20 days administration of Plx3397 chow, untreated- and Plx3397 treated 5×FAD mice (which continued PLX administration) were subjected to 30 days of daily GENUS. Mice were tested in OF and NOR during the last week of these treatments. […] Next, CK-p25 mice were treated for 42 days and assessed behavioral performance.
For OF, mice were introduced into an open field box (dimensions: length=460 mm, width=460 mm and height=400 mm; TSE-Systems) and were tracked using Noldus (Ethovision) for 12 min, with time spent in the center and peripheral area of the arena measured. […] Mouse behavior was monitored for 7 min. Time spent exploring both the familiar and novel objects was recorded using Noldus and computed offline. Percentage of novelty preference index was calculated as follows: time exploring novel object (Nt) divided by total time exploring novel and familiar (Ft) objects and presented in %−{[Nt/Nt+Ft]*100}. […]

[2] = hippocampus, chronic Plx3397 vs control

FC(F)(F)c1ccc(CNc2ccc(Cc3c[nH]c4ncc(Cl)cc34)cn2)cn1 [Plx3397, Pexidartinib]
C1q levels (C1q; [2]): reduced | C1q (C1q; visual cortex, Plx3397 50 days): 22040955±1586416 au | microglia numbers (Iba1+ cell counts), GENUS vs no GENUS after depletion (IBA1+ microglia; APOE4-KI 5×FAD mice on PLX3397 diet): not further modified | microglia numbers (IBA1+ microglia; male APOE4-KI 5×FAD mice, hippocampus, PLX3397 diet vs standard diet): significant reduction | MBP levels [1, 2]: did not affect | overall MBP signals ([1]; visual cortex, Plx3397 50 days, not significantly affected): 953800000±1277515477 au | total MBP levels ([1]; western blot, control 100±19.58, not affected): 132.4±30.10 | myelin ensheathment of axons of PV interneurons ([1]; control 20.75±1.45): 25.44±2.83 | novel object recognition memory in the NOR test (CK-p25 mice; CK-p25 mice treated for 42 days): significantly improved | novel object recognition memory in the NOR test (novelty index) (CK-p25 mice; CK-p25 mice, control 54.82±3.70): 70.52±2.89

From patent US20230181905A1, “Systems, Devices, and Methods for Enhancing the Neuroprotective Effects of Non-Invasive Gamma Stimulation with Pharmacological Agents” (Massachusetts Institute of Technology, priority 2021, published 2023)
